Measured values published in patent US20110014216A1, “Drug Transfer Based on Coenzyme A and Acyl Carrier Protein” (COVALYS B[…], priority 2007, published 2011).

Tested on: fusion protein ACP-FRB
Assay: in vitro protein trimer formation with ACP-FRB, ACP synthase, SDS-PAGE
Assay type: biochemical
Settings: FRB protein fused to ACP tag, ACP synthase enzyme, overnight incubation at 4° C., coomassie stained
Experimental: A solution of maleimide derivative (34) (1.4 mg, 1 eq, 1.3 μmol) in DMF (0.7 mL) is added to a solution of CoA-SH (3.5 mg, 3.3 eq, 4.3 μmol) in Tris buffer (pH 7.5, 100 μL). The reaction mixture is shaken overnight at 31° C. The solvent is removed under vacuum and the crude mixture is purified via preparative HPLC. The structural ability of compound (35) to trigger the formation of a protein trimer is confirmed by in vitro experiments using the fusion protein ACP-FRB. 12.5 μL of a 48.5 μM solution of FRB protein fused to the ACP tag (Covalys) is mixed with 0.5 μL of a 0.2 mM solution of compound (35), 2.5 μL of a solution of [500 mM Tris-HCl pH 7.5; 1500 mM NaCl; 100 mM MgCl2], 9.5 μL of double distilled water and 0.5 μl of ACP synthase enzyme (available from Covalys). Following overnight incubation at 4° C., 5 μL of a solution of 100 mM Tris-HCl pH 6.8; 2% SDS; 35% glycerol; 10 mM EDTA; 20 mM DTT is added. The mixture is boiled for 5 min at 95° C. After cooling to rt, 30 μL of this solution is loaded on a 4-20% linear gradient SDS-PAGE gel. After electrophoresis, the proteins are coomassie stained in gel to visualize protein trimer.

Q: For `CCN(CC)c1ccc2nc3c4cc(OCC(=O)NC(COCCC(=O)NCCN5C(=O)CC(SCCNC(=O)CCNC(=O)[C@H](O)C(C)(C)COP(=O)([O-])OP(=O)([O-])OC[C@H]6O[C@@H](n7cnc8c(N)ncnc87)C(O)C6OP(=O)(O)O)C5=O)(COCCC(=O)NCCN5C(=O)CC(SCCNC(=O)CCNC(=O)[C@H](O)C(C)(C)COP(=O)([O-])OP(=O)([O-])OC[C@H]6O[C@@H](n7cnc8c(N)ncnc87)C(O)C6OP(=O)(O)O)C5=O)COCCC(=O)NCCN5C(=O)CC(SCCNC(=O)CCNC(=O)[C@H](O)C(C)(C)COP(=O)([O-])OP(=O)([O-])OC[C@H]6O[C@@H](n7cnc8c(N)ncnc87)C(O)C6OP(=O)(O)O)C5=O)ccc4c(=O)cc-3oc2c1.[Na+].[Na+].[Na+].[Na+].[Na+].[Na+]` (stereo partly shown) [Compound 35, N-Tris-{[2-(2-(2-(CoA-S)-succinimido)ethylaminocarbonyl)ethoxy]-methyl}methyl nile red-oxyacetamide], which “structural ability to trigger the formation of a protein trimer” value is on record?
A: confirmed
